We go through six compounds from patent US20050228016A1, “TETRAHYDROQUINOLINES FOR MODULATING THE EXPRESSION OF EXOGENOUS GENES VIA AN ECDYSONE RECEPTOR COMPLEX” (priority 2002, published 2005).

Series [1] has as its system CfEcR + LmUSP. To be noted: CfEcR + LmUSP in 3T3 cells, reporter assayed 48 h after ligand. For orientation: A reporter such as luciferase makes a cellular process visible.
Description: 1.9—Gal4CfEcR-DEF/VP16LmRXR-EF: This construct was prepared in the same way as switch 1.1 except LmRXR-EF (SEQ ID NO: 18) was used in place of HsRXRβ-LmRXREF chimera.
(§3) To determine if any of the compounds shown in Table 1 and Table 2 can act as inducers of reporter gene activity in a transactivation assay, these compounds were tested in NIH3T3 cells transfected with pFRLUC reporter and gene expression cassettes, 1.1 to 1.8 described in Example 1. […] At 48 hr after adding ligand, the cells were harvested and reporter activity was assayed using Dual Luciferase assay kit (Promega carporation). Total relative light units (RLU) are shown. Standard methods for culture and maintenance of the cells were followed.
(§4) Transfections: DNAs corresponding to the various switch constructs outlined in Example I, specifically switches 1.1 through 1.8, were transfected into mouse NIH3T3 cells (ATCC) as follows. Cells were harvested when they reached 50% confluency and plated in 6-, 12- or 24-well plates at 125,000, 50,000, or 25,000 cells, respectively, in 2.5, 1.0, or 0.5 ml of growth medium containing 10% fetal bovine serum (FBS), respectively. The next day, the cells were rinsed with growth medium and transfected for four hours. […] For 12-well plates, 4 μl of Superfect™ was mixed with 100 μl of growth medium. 1.0 μg of reporter construct and 0.25 μg of each receptor construct of the receptor pair to be analyzed were added to the transfection mix. A second reporter construct was added [pTKRL (Promega), 0.1 μg/transfection mix] that comprises a Renilla luciferase gene operably linked and placed under the control of a thymidine kinase (TK) constitutive promoter and was used for normalization. The contents of the transfection mix were mixed in a vortex mixer and let stand at room temperature for 30 min. At the end of incubation, the transfection mix was added to the cells maintained in 400 μl growth medium. The cells were maintained at 37° C. and 5% CO2 for four hours. At the end of incubation, 500 μl of growth medium containing 20% FBS and either dimethylsulfoxide (DMSO; control) or a DMSO solution of 0.1, 1, and 10 μM ligand was added and the cells were maintained at 37° C. and 5% CO2 for 48 hours. The cells were harvested and reporter activity was assayed. The same procedure was followed for 6 and 24 well plates as well except all the reagents were doubled for 6 well plates and reduced to half for 24-well plates.
(§5) Ligands: All ligands were dissolved in DMSO and the final concentration of DMSO was maintained at 0.1% in both controls and treatments.
(§6) Reporter Assays: Cells were harvested 48 hours after adding ligands. 125, 250, or 500 μl of passive lysis buffer (part of Dual-luciferase™ reporter assay system from Promega Corporation) were added to each well of 24- or 12- or 6-well plates respectively. The plates were placed on a rotary shaker for 15 minutes. Twenty μl of lysate were assayed. Luciferase activity was measured using Dual-luciferase™ reporter assay system from Promega Corporation following the manufacturer's instructions.
The target in series [2] is T1, DmEcR + LmUSP (Drosophila melanogaster, UniProt P34021).
T1 sequence (P34021 342-878): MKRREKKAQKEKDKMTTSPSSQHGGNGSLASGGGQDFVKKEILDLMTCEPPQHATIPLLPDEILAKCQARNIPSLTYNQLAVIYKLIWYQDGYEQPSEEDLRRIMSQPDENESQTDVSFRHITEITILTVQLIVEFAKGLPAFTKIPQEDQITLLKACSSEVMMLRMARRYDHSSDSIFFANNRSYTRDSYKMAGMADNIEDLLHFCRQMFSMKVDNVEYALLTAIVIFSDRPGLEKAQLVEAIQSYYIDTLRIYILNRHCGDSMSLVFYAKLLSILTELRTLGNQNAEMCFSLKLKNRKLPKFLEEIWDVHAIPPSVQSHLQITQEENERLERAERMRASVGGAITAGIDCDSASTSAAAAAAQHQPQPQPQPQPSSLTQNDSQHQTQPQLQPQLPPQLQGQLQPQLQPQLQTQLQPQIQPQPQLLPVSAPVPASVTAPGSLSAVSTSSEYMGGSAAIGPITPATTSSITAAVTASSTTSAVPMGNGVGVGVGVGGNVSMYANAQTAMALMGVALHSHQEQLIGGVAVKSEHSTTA
In words: cell-based. To be noted: for fold induction at 10 µM: NIH3T3, read-out: Fold Induction (10 μM); for fold induction at 100 µM: NIH3T3, read-out: Fold Induction (100 μM).
Description: as §3, §4, §5, §6

Series [3] deals with T2, Gal4DBD/AaEcR (DEF) (Aedes aegypti, UniProt P49880).
T2 construct: The wildtype D, E, and F domains from mosquito Aedes aegypti EcR; expressed in transfected cells; host or cells: 3T3 cells
Description: cell-based. The series is classed as cell-based. To be noted: for fold induction at 33 µM: NIH3T3, read-out: Fold Induction Average, AA_3T3V1 Assay 33 μM; for Fold Induction Average, AA_3T3V1 Assay 33 μM: 3T3 cells, 48 h, average of two wells. The method, boiled down:
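Mouse 3T3 cells transiently co-transfected with Gal4DBD/AaEcR (DEF) and pFRLuc (5× GAL4 response element, firefly luciferase reporter). Ligand added in serum medium 4 h after transfection; single-dose testing at 33 μM.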

The target of series [4] is T3, Bombyx mori EcR (VP16-BmEcR, CVBE) (Bombyx mori, UniProt P49881).
T3 construct: expressed in transfected cells
T3 sequence (P49881 86-606): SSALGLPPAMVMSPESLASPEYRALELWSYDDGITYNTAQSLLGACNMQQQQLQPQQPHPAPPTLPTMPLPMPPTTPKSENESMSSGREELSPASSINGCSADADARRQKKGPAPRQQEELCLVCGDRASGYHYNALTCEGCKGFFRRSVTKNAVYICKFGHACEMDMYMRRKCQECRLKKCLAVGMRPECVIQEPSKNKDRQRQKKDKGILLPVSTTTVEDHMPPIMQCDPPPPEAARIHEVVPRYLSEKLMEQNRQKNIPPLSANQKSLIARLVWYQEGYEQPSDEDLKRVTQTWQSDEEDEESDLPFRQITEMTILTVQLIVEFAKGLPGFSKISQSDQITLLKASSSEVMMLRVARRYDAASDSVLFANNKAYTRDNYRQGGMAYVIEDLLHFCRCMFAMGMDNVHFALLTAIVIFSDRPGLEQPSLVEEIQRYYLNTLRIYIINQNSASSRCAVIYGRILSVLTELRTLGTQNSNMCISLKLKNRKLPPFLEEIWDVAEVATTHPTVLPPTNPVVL
Description: Z3 assay (HEK-293 clone Z3 with CVBE and 6x EcRE LacZ, β-galactosidase reporter). The series is classed as cell-based. To be noted: average of two wells; for fold induction at 33 µM: HEK293, 48 h, read-out: Fold Induction Average, Z3V1 Assay 33 μM; for Fold Induction Average, Z3V1 Assay 33 μM: 48 h.

The test system of series [5] is GAL4 DBD-CfEcR(DEF)/VP16AD-MmRXRE. To be noted: CHO 13B3 clone, 48 h, average of two wells. The text has this: GAL4 DBD-CfEcR(DEF)/VP16AD-MmRXRE: The wild-type D, E, and F domains from spruce budworm Choristoneura fumiferana EcR (“CfEcR-DEF”; SEQ ID NO: 1) were fused to a GAL4 DNA binding domain (“Gal4DBD1-147”; nucleotides 31 to 471 of SEQ ID NO: 2) and placed under the control of the SV40e promoter of pM vector (PT3119-5, Clontech, Palo Alto, Calif.). The D and E domains from Mus Musculus RXR (“MmRXR-DE”; SEQ ID NO: 22) were fused to the transactivation domain from VP16 (“VP16AD”; SEQ ID NO: 5) and placed under the control of the SV40e promoter of the pVP16 vector (PT3127-5, Clontech, Palo Alto, Calif.).
CHO cells were transiently transfected with transcription cassettes for GAL4 DBD-CfEcR(DEF) and for VP16AD-MmRXRE controlled by SV40e promoters. Stably transfected cells were selected using Hygromycin. Individually isolated CHO cell clones were transiently transfected with a GAL4 RE-luciferase reporter (pFR-Luc, Stratagene, La Jolla, Calif.). The 13B3 clone was selected using Zeocin.
Cells were trypsinized and diluted to a concentration of 2.5×10^4 cells mL. 100 μL of cell suspension was placed in each well of a 96 well plate and incubated at 37° C. under 5% CO2 for 24 h. Ligand stock solutions were prepared in DMSO and diluted 300 fold for all treatments.
(§1) Luciferase reporter gene expression was measured 48 h after cell treatment using Bright-Glo™ Luciferase Assay System from Promega (E2650). Luminescence was detected at room temperature using a Dynex MLX microtiter plate luminometer.
(§2) Each assay was conducted in two separate wells, and the two values were averaged. Fold inductions were calculated by dividing relative light units (“RLU”) in ligand treated cells with RLU in DMSO treated cells.

Series [6] deals with T4, GAL4AaEcR-DEF/VP16HsRXRβ-EF (Aedes aegypti, UniProt P49880).
T4 construct: expressed in transfected cells; host or cells: mouse NIH3T3 cells
T4 sequence (P49880 405-776 limits assumed): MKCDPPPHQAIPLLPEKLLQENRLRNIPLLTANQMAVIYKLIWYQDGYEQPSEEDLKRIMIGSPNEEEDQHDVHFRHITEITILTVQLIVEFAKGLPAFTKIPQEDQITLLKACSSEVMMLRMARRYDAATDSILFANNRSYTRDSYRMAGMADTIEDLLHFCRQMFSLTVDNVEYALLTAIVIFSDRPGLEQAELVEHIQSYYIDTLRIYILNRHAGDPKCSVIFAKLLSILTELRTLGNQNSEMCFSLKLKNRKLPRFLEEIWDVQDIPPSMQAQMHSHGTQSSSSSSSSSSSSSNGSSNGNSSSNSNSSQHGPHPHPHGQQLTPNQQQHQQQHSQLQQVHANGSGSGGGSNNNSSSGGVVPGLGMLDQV
T4 sequence (P28702 299-533 partner limits assumed): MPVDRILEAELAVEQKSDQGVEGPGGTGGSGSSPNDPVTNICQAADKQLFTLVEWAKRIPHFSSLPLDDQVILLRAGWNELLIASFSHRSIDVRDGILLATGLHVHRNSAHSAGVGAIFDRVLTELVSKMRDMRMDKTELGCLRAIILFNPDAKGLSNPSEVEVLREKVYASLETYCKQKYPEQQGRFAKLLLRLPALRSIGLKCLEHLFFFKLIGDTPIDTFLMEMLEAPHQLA
In words: Transactivation reporter assay, AaEcR based switch (1.4) in NIH3T3 cells. The series is classed as cell-based. To be noted: mammalian cells; FIGS. 2-5. On the procedure: Total relative light units (RLU) are shown.
Twenty μl of lysate were assayed.

The subject of series [7] is GAL4 DBD (1-147)-CfEcR(DEF)/VP16AD-βRXREF-LmUSPEF. To be noted: CHO 27-63 clone, 48 h, average of two wells.
Text: GAL4 DBD (1-147)-CfEcR(DEF)/VP16AD-βRXREF-LmUSPEF: The wild-type D, E, and F domains from spruce budworm Choristoneura fumiferana EcR (“CfEcR-DEF”; SEQ ID NO: 1) were fused to a GAL4 DNA binding domain (“Gal4DBD1-147”; nucleotides 31 to 471 of SEQ ID NO: 2) and placed under the control of a phosphoglycerate kinase promoter (“PGK”; SEQ ID NO: 19). Helices 1 through 8 of the EF domains from Homo sapiens RXRβ and helices 9 through 12 of the EF domains of Locusta migratoria Ultraspiracle Protein (“HsRXRβ-EF-LmUSP-EF”; SEQ ID NO: 4) were fused to the transactivation domain from VP16 (“VP16AD”; SEQ ID NO: 5) and placed under the control of an elongation factor-1α promoter (“EF-1α”; SEQ ID NO: 20). Five consensus GAL4 response element binding sites (“5× GAL4RE”; comprising 5 copies of a GAL4RE comprising SEQ ID NO: 7) were fused to a synthetic TATA minimal promoter (SEQ ID NO: 21) and placed upstream of the luciferase reporter gene (SEQ ID NO: 9).
CHO cells were transiently transfected with transcription cassettes for GAL4 DBD (1-147) CfEcR(DEF) and for VP16AD βRXREF-LmUSPEF controlled by ubiquitously active cellular promoters (PGK and EF-1α, respectively) on a single plasmid. Stably transfected cells were selected by Zeocin resistance. Individually isolated CHO cell clones were transiently transfected with a GAL4 RE-luciferase reporter (pFR Luc). 27-63 clone was selected using Hygromycin.
Cells were trypsinized and diluted to a concentration of 2.5×10^4 cells mL. 100 μL of cell suspension was placed in each well of a 96 well plate and incubated at 37° C. under 5% CO2 for 24 h. Ligand stock solutions were prepared in DMSO and diluted 300 fold for all treatments. Dose response testing consisted of 8 concentrations ranging from 33 μM to 0.01 μM.
as §1, §2

`C[C@H]1C[C@H](Nc2ccc(F)cc2)c2cc(F)ccc2N1C(=O)c1ccc(F)c(Cl)c1` (relative stereo) [Compound I-6, trans-1-(3-chloro-4-fluorobenzoyl)-6-fluoro-2-methyl-4-(4-fluoroanilino)-1,2,3,4-tetrahydroquinoline]: in series [1], the “Fold Induction (10 μM)” value stood at 2 fold. Moreover, in series [2], the fold induction at 10 µM came to 2 and the fold induction at 100 µM was determined as 4. In series [3], the fold induction at 33 µM was 86. The fold induction at 33 µM in series [4] came out at 1.

`C[C@@H]1C[C@H](Nc2ccc(F)cc2)c2cc(F)ccc2N1C(=O)c1ccc(F)c(Cl)c1` (relative stereo) [Compound I-7, cis-1-(3-chloro-4-fluorobenzoyl)-6-fluoro-2-methyl-4-(4-fluoroanilino)-1,2,3,4-tetrahydroquinoline]: the “Fold Induction (10 μM)” value in series [1] amounted to 94 fold. In series [2], the fold induction at 10 µM amounted to 14 and the fold induction at 100 µM was found to be 8. In addition, in series [3], the fold induction at 33 µM worked out at 357. In addition, in series [4], the fold induction at 33 µM worked out at 32.

Take `Cc1ccc(C(=O)N2c3ccc(F)cc3[C@@H](Nc3ccc(F)cc3)C[C@@H]2C)cc1F` (relative stereo) [Compound I-12]: the “Fold Induction Average, 13B3V1 Assay 33 μM” value in series [5] came out at 815 fold. The “Activity on AaEcR based switches” value in series [6] was “very active”. Further, the “Fold Induction Average, AA_3T3V1 Assay 33 μM” value in series [3] stood at 504 fold. The “Fold Induction Average, Z3V1 Assay 33 μM” value in series [4] is given as 169 fold.

Consider `Cc1cc(C(=O)N2c3ccc(F)cc3[C@@H](Nc3ccc(F)cc3)C[C@@H]2C)ccc1F` (relative stereo) [Compound I-13], for which the “Fold Induction Average, 13B3V1 Assay 33 μM” value in series [5] is on record as 4 fold. The “Activity on AaEcR based switches” value in series [6] is reported as “very active”. Also, the “Fold Induction Average, AA_3T3V1 Assay 33 μM” value in series [3] is reported as 189 fold. Further, the “Fold Induction Average, Z3V1 Assay 33 μM” value in series [4] is given as 105 fold.

Regarding `Cc1ccc(C(=O)N2c3ccc(F)cc3[C@H](Nc3ccc(F)cc3)C[C@@H]2C)cc1F` (relative stereo) [Compound I-14], the “Fold Induction Average, 13B3V1 Assay 33 μM” value in series [5] is reported as 2 fold. Besides, in series [6], the “Activity on AaEcR based switches” value was “very active”. In addition, the “Fold Induction Average, AA_3T3V1 Assay 33 μM” value in series [3] came out at 518 fold. For the same compound, in series [4], the “Fold Induction Average, Z3V1 Assay 33 μM” value worked out at 7 fold.

`COc1ccc(C(=O)N2c3c(C)cccc3C(Nc3ccccc3C)CC2C)cc1` (centres unmarked) [Compound I-135]: the “Fold Induction Average, 13B3V1 Assay 33 μM” value in series [5] is listed as 1 fold. In addition, in series [7], the “Fold Induction Average, 27-63V1 Assay 33 μM” value is listed as 3 fold. Moreover, the “Fold Induction Average, AA_3T3V1 Assay 33 μM” value in series [3] is 1 fold. The “Fold Induction Average, Z3V1 Assay 33 μM” value in series [4] is given as 1 fold.
